Test results reported in patent US20090016990A1, “Antimicrobial Compositions” (priority 2007, published 2009).

Columns and labels:
[1] = tested on: Pseudomonas aeruginosa ATCC 27853; assay: MBEC assay, biofilm inhibition (prevention of biofilm formation), MBEC bioFILM PA panel; format: cell-based; set-up: MBEC-Biofilm Inhibition, Without compound 9 / MBEC-Biofilm Inhibition, Without compound 6 / MBEC-Biofilm Inhibition, Without compound 2 / MBEC-Biofilm Inhibition, Without compound 7 / MBEC-Biofilm Inhibition, With 0.01% compound 7 in 5% EtOH/PBS / MBEC-Biofilm Inhibition, without salt of compound 2 / MBEC-Biofilm Inhibition, with 0.1% salt of compound 2 / MBEC-Biofilm Inhibition, without salt of compound 6: unit not given here; conditions: for MBEC-Biofilm Inhibition, without salt of compound 2 / MBEC-Biofilm Inhibition, with 0.1% salt of compound 2: Table 9; for MBEC-Biofilm Inhibition, without salt of compound 2 / MBEC-Biofilm Inhibition, without salt of compound 6: antibiotic or antibiotic combination alone; for MBEC-Biofilm Inhibition, without salt of compound 2 / MBEC-Biofilm Inhibition, with 0.1% salt of compound 2 / MBEC-Biofilm Inhibition, without salt of compound 6 / MBEC-Biofilm Inhibition, with 0.1% salt of compound 6: value per component; for MBEC-Biofilm Inhibition, without salt of compound 2: separated by /; for MBEC-Biofilm Inhibition, with 0.1% salt of compound 2: antibiotic or combination plus 0.1% salt of compound 2; for MBEC-Biofilm Inhibition, without salt of compound 6 / MBEC-Biofilm Inhibition, with 0.1% salt of compound 6: Table 10; for MBEC-Biofilm Inhibition, with 0.1% salt of compound 6: antibiotic or combination plus 0.1% salt of compound 6; for MBEC-Biofilm Inhibition, Without compound 1 / MBEC-Biofilm Inhibition, Without compound 2 / MBEC-Biofilm Inhibition, Without compound 3 / MBEC-Biofilm Inhibition, Without compound 6 / MBEC-Biofilm Inhibition, Without compound 7 / MBEC-Biofilm Inhibition, Without compound 9: antibiotic alone
[2] = tested on: Pseudomonas aeruginosa ATCC 27853; assay: MBEC assay, biofilm elimination, MBEC bioFILM PA panel; format: cell-based; set-up: MBEC-Biofilm Elimination, Without compound 2 / MBEC-Biofilm Elimination, With 0.01% compound 2 in 5% EtOH/PBS / MBEC-Biofilm Elimination, Without compound 7 / MBEC-Biofilm Elimination, With 0.01% compound 7 in 5% EtOH/PBS / MBEC-Biofilm Elimination, Without compound 1 / MBEC-Biofilm Elimination, With 0.01% compound 1 in 5% EtOH/PBS / MBEC-Biofilm Elimination, without salt of compound 2 / MBEC-Biofilm Elimination, with 0.1% salt of compound 2: unit not given here; conditions: for MBEC-Biofilm Elimination, without salt of compound 2 / MBEC-Biofilm Elimination, with 0.1% salt of compound 2: Table 9; for MBEC-Biofilm Elimination, without salt of compound 2 / MBEC-Biofilm Elimination, without salt of compound 6: antibiotic or antibiotic combination alone; for MBEC-Biofilm Elimination, without salt of compound 2 / MBEC-Biofilm Elimination, with 0.1% salt of compound 2 / MBEC-Biofilm Elimination, without salt of compound 6 / MBEC-Biofilm Elimination, with 0.1% salt of compound 6: value per component; for MBEC-Biofilm Elimination, with 0.1% salt of compound 2: antibiotic or combination plus 0.1% salt of compound 2; for MBEC-Biofilm Elimination, without salt of compound 6 / MBEC-Biofilm Elimination, with 0.1% salt of compound 6: Table 10; for MBEC-Biofilm Elimination, with 0.1% salt of compound 6: antibiotic or combination plus 0.1% salt of compound 6; for MBEC-Biofilm Elimination, Without compound 1 / MBEC-Biofilm Elimination, Without compound 2 / MBEC-Biofilm Elimination, Without compound 3 / MBEC-Biofilm Elimination, Without compound 6 / MBEC-Biofilm Elimination, Without compound 7 / MBEC-Biofilm Elimination, Without compound 9: antibiotic alone
[3] = with 0.01% compound 1 in 5% EtOH/PBS
[4] = with 0.1% w/v compound 9 in PBS

Row | Structure (SMILES) | MBEC-Biofilm Inhibition, without salt of compound 2 [1] | MBEC-Biofilm Inhibition, with 0.1% salt of compound 2 [1] | MBEC-Biofilm Inhibition, without salt of compound 6 [1] | MBEC-Biofilm Inhibition, with 0.1% salt of compound 6 [1] | MBEC-Biofilm Inhibition, Without compound 1 [1] | MBEC-Biofilm Inhibition, Without compound 2 [1] | MBEC-Biofilm Inhibition, Without compound 3 [1] | MBEC-Biofilm Inhibition, Without compound 6 [1] | MBEC-Biofilm Inhibition, Without compound 7 [1] | MBEC-Biofilm Inhibition, Without compound 9 [1] | MBEC-Biofilm Inhibition, With 0.01% compound 1 in 5% EtOH/PBS [1, 3] | MBEC-Biofilm Inhibition, With 0.01% compound 2 in 5% EtOH/PBS [1] | MBEC-Biofilm Inhibition, With 0.01% compound 7 in 5% EtOH/PBS [1] | MBEC-Biofilm Inhibition, With 0.05% compound 3 in 5% EtOH/PBS [1] | MBEC-Biofilm Inhibition, With 0.05% compound 6 in 5% EtOH/PBS [1] | MBEC-Biofilm Elimination, without salt of compound 2 [2] | MBEC-Biofilm Elimination, with 0.1% salt of compound 2 [2] | MBEC-Biofilm Elimination, without salt of compound 6 [2] | MBEC-Biofilm Elimination, with 0.1% salt of compound 6 [2] | MBEC-Biofilm Elimination, Without compound 1 [2] | also measured
1 | CO/N=C(\C(=O)N[C@@H]1C(=O)N2C(C(=O)[O-])=C(C[N+]3(C)CCCC3)CS[C@H]12)c1csc(N)n1 [CPE, cefepime] | >4 | >4 | >4 | >4 | >4 | >4 | >4 | >4 | >4 | >4 | >4 | >4 | >4 | >4 | >4 | >4 | >4 | >4 | >4 | >4 | MBEC-Biofilm Elimination, Without compound 2 [2]: >4; MBEC-Biofilm Elimination, Without compound 3 [2]: >4; MBEC-Biofilm Elimination, Without compound 6 [2]: >4; MBEC-Biofilm Elimination, Without compound 7 [2]: >4; MBEC-Biofilm Elimination, Without compound 9 [2]: >4; MBEC-Biofilm Elimination, With 0.01% compound 1 in 5% EtOH/PBS [2]: >4; MBEC-Biofilm Elimination, With 0.01% compound 2 in 5% EtOH/PBS [2]: >4; MBEC-Biofilm Elimination, With 0.01% compound 7 in 5% EtOH/PBS [2]: >4; MBEC-Biofilm Elimination, With 0.05% compound 3 in 5% EtOH/PBS [2]: >4; MBEC-Biofilm Elimination, With 0.05% compound 6 in 5% EtOH/PBS [2]: >4
2 | NC[C@H]1O[C@H](O[C@H]2[C@H](O)[C@@H](O[C@H]3O[C@H](CO)[C@@H](O)[C@H](N)[C@H]3O)[C@H](N)C[C@@H]2N)[C@H](N)C[C@@H]1O [TO, tobramycin] | >2 | >2 | >2 | >2 | >2 | >2 | >2 | >2 | >2 | 2 | 0.5-2 | >2 | >2 | >2 | >2 | >2 | >2 | >2 | >2 | >2 | MBEC ([1]; antibiotic or combination alone, concentrations in order of the combination): >2 µg/mL; MBEC, μg/mL +Compound 1 ([1]; antibiotic plus Compound 1): 0.5 to 2 µg/mL; MBEC, μg/mL +Compound 2 ([1]; antibiotic plus Compound 2): >2 µg/mL; MBEC, μg/mL +Compound 7 ([1]; antibiotic plus Compound 7): >2 µg/mL; (% reduction) +Compound 1 ([1]; reduction of antibiotic or combination required to prevent biofilm formation): > 50%; value in parentheses after MBEC-Biofilm Inhibition with 0.01% compound 1 (% reduction as in Table 2) [1, 3]: ≥ 50; MBEC-Biofilm Inhibition, With 0.1% w/v compound 9 in PBS [1, 4]: >2; MBEC-Biofilm Elimination, Without compound 2 [2]: >2; MBEC-Biofilm Elimination, Without compound 3 [2]: >2; MBEC-Biofilm Elimination, Without compound 6 [2]: >2; MBEC-Biofilm Elimination, Without compound 7 [2]: >2; MBEC-Biofilm Elimination, Without compound 9 [2]: >2; MBEC-Biofilm Elimination, With 0.01% compound 1 in 5% EtOH/PBS [2]: >2; MBEC-Biofilm Elimination, With 0.01% compound 2 in 5% EtOH/PBS [2]: 1; MBEC-Biofilm Elimination, With 0.01% compound 7 in 5% EtOH/PBS [2]: 0.5; MBEC-Biofilm Elimination, With 0.05% compound 3 in 5% EtOH/PBS [2]: >2; MBEC-Biofilm Elimination, With 0.05% compound 6 in 5% EtOH/PBS [2]: >2; MBEC-Biofilm Elimination, With 0.1% w/v compound 9 in PBS [2, 4]: >2
